This note sets out measurements from patent US7915267B2, “Heterocyclic amide compound and use thereof” (Takeda Pharmaceutical Company Limited, priority 2005, dated 2011).

Molecules are shown by their SMILES.

For this test, the target named is T1, MMP-13 (Homo sapiens, UniProt P45452).
T1 construct: purchased GenzymeTechne
Kind of test: MMP-13 inhibitory activity (fluorogenic substrate Cy3-PLGLK(Cy5Q)AR-NH2 enzyme assay). In kind it is biochemical. The following applies: compound 1 μM; 37° C., 40 min; APMA-activated MMP-13 precursor; read-out: MMP-13 inhibitory rate (%) at 1 μM. On the procedure: To 10 μg of MMP-13 precursor (GenzymeTechne) was added 1 ml of assay buffer (50 mM Tris-HCl (pH 7.5), 10 mM CaCl2, 150 mM NaCl, 0.05% Brij-35), and 4-aminophenylmercuric acid (Sigma) was added to the final concentration of 1 mM. The MMP-13 precursor was activated by incubating at 37° C. for 2 hr.
In a 96 well black plate (Corning), to 6.3 ng/ml of MMP-13 solution (49 μl) diluted with assay buffer was added the test compound (1 μl) diluted with dimethyl sulfoxide (DMSO) and 620 nM Cy3-PLGLK(Cy5Q)AR-NH2 (50 μl, synthesized by Amersham Biosciences) in assay buffer was added to start the enzyme reaction. After incubation at 37° C. for 40 min, 500 mM EDTA solution (6 μl) was added to stop the reaction. For measurement, Farcyte (Amersham Biosciences) was used to measure at excitation wavelength 535 nm and measurement wavelength 595 nm.
T: value of well with addition of DMSO instead of test compound
C: value of well with addition of DMSO instead of test compound and addition of EDTA solution before addition of substrate solution
X: value of well with addition of test compound
Turning to `N#Cc1ccc2nc(C(=O)NCc3cccc(NC(=O)CCc4nc[nH]n4)c3)[nH]c(=O)c2c1` [Example 32, 6-cyano-4-oxo-N-[(3-{[3-(1H-1,2,4-triazol-3-yl)propanoyl]amino}phenyl)methyl]-3,4-dihydroquinazoline-2-carboxamide], the inhibition at 1 µM came to 98%.

As for `Cc1csc2nc(C(=O)NCc3cccc(NC(=O)c4nc[nH]n4)c3)[nH]c(=O)c12` [Example 39, 5-methyl-4-oxo-N-({3-[(1H-1,2,4-triazol-3-ylcarbonyl)amino]phenyl}methyl)-3,4-dihydrothieno[2,3-d]pyrimidine-2-carboxamide], the inhibition at 1 µM was 81%.

As for `O=C(NCc1cccc(OCCSc2nc[nH]n2)c1)c1nc2ccc(F)cc2c(=O)[nH]1` [Example 3, 6-fluoro-4-oxo-N-[(3-{[2-(1H-1,2,4-triazol-3-ylthio)ethyl]oxy}phenyl)methyl]-3,4-dihydroquinazoline-2-carboxamide], the inhibition at 1 µM was 98%.

For `O=C(NCc1cccc(OCCSc2nc[nH]n2)c1)c1nc2sccc2c(=O)[nH]1` [Example 11, 4-oxo-N-[(3-{[2-(1H-1,2,4-triazol-3-ylthio)ethyl]oxy}phenyl)methyl]-3,4-dihydrothieno[2,3-d]pyrimidine-2-carboxamide], the inhibition at 1 µM came to 97%.

With `CCOC(=O)c1ccc(COCc2csc3nc(C(=O)NCc4ccnc(OCCCc5nc[nH]n5)c4)[nH]c(=O)c23)cc1` [Example 41, ethyl 4-[({[4-oxo-2-({[(2-{[3-(1H-1,2,4-triazol-3-yl)propyl]oxy}pyridin-4-yl)methyl]amino}carbonyl)-3,4-dihydrothieno[2,3-d]pyrimidin-5-yl]methyl}oxy)methyl]benzoate], the inhibition at 1 µM amounted to 96%.

Consider `N#Cc1ccc2nc(C(=O)NCc3cccc(CNC(=O)Cc4nc[nH]n4)c3)[nH]c(=O)c2c1` [Example 34, 6-cyano-4-oxo-N-[(3-{[(1H-1,2,4-triazol-3-ylacetyl)amino]methyl}phenyl)methyl]-3,4-dihydroquinazoline-2-carboxamide], for which the inhibition at 1 µM amounted to 90%.

Turning to `COC(=O)c1ccc(OCCn2ncc3nc(C(=O)NCc4cccc(OCCOc5nc[nH]n5)c4)[nH]c(=O)c32)cc1` [Example 47, methyl 4-({2-[7-oxo-5-({[(3-{[2-(1H-1,2,4-triazol-3-yloxy)ethyl]oxy}phenyl)methyl]amino)carbonyl}-6,7-dihydro-1H-pyrazolo[4,3-d]pyrimidin-1-yl]ethyl}oxy)benzoate], the inhibition at 1 µM worked out at 98%.

With `N#Cc1ccc2nc(C(=O)NCc3cccc(OCCCSc4nc[nH]n4)c3)[nH]c(=O)c2c1` [Example 15, 6-cyano-4-oxo-N-[(3-{[3-(1H-1,2,4-triazol-3-ylthio)propyl]oxy}phenyl)methyl]-3,4-dihydroquinazoline-2-carboxamide], the inhibition at 1 µM was 98%.

Regarding `Cc1sc2nc(C(=O)NCc3cccc(OCCSc4nc[nH]n4)c3)[nH]c(=O)c2c1C` [Example 14, 5,6-dimethyl-4-oxo-N-[(3-{[2-(1H-1,2,4-triazol-3-ylthio)ethyl]oxy}phenyl)methyl]-3,4-dihydrothieno[2,3-d]pyrimidine-2-carboxamide], the inhibition at 1 µM turned out to be 98%.

Turning to `N#Cc1ccc2nc(C(=O)NCc3cccc(OCCSc4nc[nH]n4)c3)[nH]c(=O)c2c1` [Example 2, 6-cyano-4-oxo-N-[(3-{[2-(1H-1,2,4-triazol-3-ylthio)ethyl]oxy}phenyl)methyl]-3,4-dihydroquinazoline-2-carboxamide], the inhibition at 1 µM worked out at 97%.

Regarding `N#Cc1ccc2nc(C(=O)NCc3ccnc(OCCCc4nc[nH]n4)c3)[nH]c(=O)c2c1` [Example 23, 6-cyano-4-oxo-N-[(2-{[3-(1H-1,2,4-triazol-3-yl)propyl]oxy}pyridin-4-yl)methyl]-3,4-dihydroquinazoline-2-carboxamide], the inhibition at 1 µM was 96%.
